Data: patent US20210322339A1, “COMBINATION THERAPY OF COENZYME Q10 AND RADIATION FOR TREATMENT OF GLIOMA” (Berg LLC, priority 2019, published 2021)

How the values were obtained:
C6 glioma cells = assay: Orthotopic C6 glioma rat model, survival and MRI; format: in vivo, Wistar rats; settings: long-term survivor, D27, D34, D102
Experimental: 10^6 C6 glioma cells were implanted into the right striatum of Wistar rats. Four days after implantation, animals started to receive saline (n=32) or 50 mg/kg of Coenzyme Q10 (n=21), twice a day, i.p. for 45 days. Surviving animals remained in the study until Day 102 (A) Kaplan-Meier survival curve of rats during 45 days of treatment. Over 25% of rats treated with Coenzyme Q10 survived 45 days, considered long-term survival in this model (p<0.01, log rank test). (B) Serial MRI images of a long-term survivor (D27, D34, D102). […] Far right panel is a coronal section of the long-term survivor.
10^6 C6 glioma cells were implanted into the right striatum of Wistar rats. Four days after implantation, animals started to receive saline (n=32) or 50 mg/kg of Coenzyme Q10 (n=21), twice a day, i.p. for 45 days. Surviving animals remained in the study until Day 102.

C6 cells = assay: Implanted luciferase-labeled C6 glioma rat model with radiotherapy, survival; format: in vivo, Sprague Dawley rats
Experimental: Methodology: 1×10^6 luciferase labeled C6 cells were implanted into the right striatum of Sprague Dawley rats. 4 days post-implantation, 50 rats were randomized into one of four groups:
(i) Saline injection ip bid; (12 rats)
(ii) Coenzyme Q10 50 mg/kg ip bid to continue up to 35 days; (12 rats)
(iii) 12 Gy radiotherapy (RT) to be administered on Day 8 post-implant with saline injection (12 rats); and
(iv) Coenzyme Q10+RT (14 rats).
Tumor-bearing rats were monitored until death or Day 50.

U251 glioma cells = assay: Human co-culture U251/NHA, imaging and flow cytometry of GFP, superoxide and DAPI; format: cell-based
Excerpt: (§1) (A) Strategy of human co-culture experiments. In the human cell model, NHA (non-label) and U251 (GFP-labelled) cells are co-cultured in designated cell density. […] (C) Flow cytometric analysis (scatter plot) of GFP and superoxide for U251/NHA cocultures. Cell populations are characterized based by GFP intensity (GFP-negative, GFP-low, and GFP-high). […] (D) Quantification of cell percentages from (C) illustrating the increased number of GFP-low cells with increased dose. (E) Flow cytometric analysis of superoxide and DAPI for NHA-U251/NHA co-cultures treated with 0, 230, or 460 μM Coenzyme Q10.
(§2) We assessed the effects of Coenzyme Q10 on mitochondrial superoxide production in in vitro cocultures of glioma and non-cancerous cells, i.e. rodent C6 glioma, rodent NIH3T3 non-cancerous fibroblast cells, human U251 glioma, and primary human non-cancerous astrocytes.
(§3) In the human cell model, NHA (non-label) and U251 (GFP-labelled) cells were co-cultured at a designated cell density. Phase and fluorescent images of U251/NHA Co-cultures of U251/NHA cells were treated with 0 or 460 μM Coenzyme Q10 and detected by phase and fluorescent imaging. […] See FIG. 2 B. Cells were also analyzed by flow cytometric analysis (scatter plot) of GFP and superoxide for U251/NHA cocultures. Cell populations were characterized based by GFP intensity (GFP-negative, GFP-low, and GFP-high). […] Quantification of cell percentages illustrated the increased number of GFP-low cells with increased dose.

[1] = system: C6 glioma and NIH3T3 cells; assay: Rodent co-culture of C6-GFP glioma and NIH3T3 cells, cell number and Mitosox superoxide by flow cytometry; format: cell-based
Experimental: FIGS. 2A-2F show differential induction of mitochondrial superoxide by Coenzyme Q10 in non-cancer vs. neoplastic cells. (A) Strategy of rodent co-culture experiments using glioma and non-tumor cells. The rodent cell co-culture consisted of fibroblastic NIH3T3 and glioma C6-GFP cells. (B) NIH3T3 and C6 cells were initially seeded in 1:1 ratio. After 72 h or 144 h incubation with Coenzyme Q10 (0 μM, […], 115 μM, 230 μM, […] or 460 μM), the number of C6 or NIH3T3 cells in co-culture is generated by flow-cytometry. (C) Images were taken at 72 hrs post-dosing (0 μM, 230 μM or 460 μM) using a Leica CTR5000. […] Percentage of cells harboring positive or negative level of superoxide from C6 (GFP+) or NIH3T3 (GFP−) population are recorded by flow cytometry (D) and presented as table of summary (E). […]
as §2
For the rodent cells, NIH3T3 and C6 cells were initially seeded in a 1:1 ratio. […] Superoxide level was detected by Mitosox staining. The percentage of cells harboring positive or negative levels of superoxide from C6 (GFP+) or NIH3T3 (GFP−) populations were determined by flow cytometry.

[2] = system: NHA (normal human astrocytes); assay: Human co-culture U251/NHA, flow cytometry of superoxide in non-cancerous cells; format: cell-based; settings: 0, 230 or 460 μM
Excerpt: as §1, §2
as §3, with “cocultures.” for “cocultures. Cell populations were characterized based by GFP intensity (GFP-negative, GFP-low, and GFP-high).”

high-grade glioma = settings: one patient, after 6 weeks in the study
Experimental: The patients in this study were administered a CoQ10-lipid conjugate in which oxidized CoQ10 was incorporated into a mixture of mitochondria compatible lipids, enabling delivery of supraphysiological concentrations of CoQ10 to the mitochondria.
This study was a phase I trial of Coenzyme Q10 to assess for safety and tolerability of Coenzyme Q10 with vitamin K in patients with HGGs that were progressive after a bevacizumab (BEV) containing regimen. […] Therefore, this study used 10 mg vitamin K prophylactically.
Design: Modified toxicity probability interval design (mTPI) enrolling patients sequentially and monitoring through a 28-day DLT period. 1 dose escalation and 2 dose de-escalations allowed.
Key Inclusion Criteria: HGG (GB, Gliosarcoma, AA, AO) sp radiation with TMZ in recurrence after treatment with BEV. Evidence of leptomeningeal spread was allowed. >18 w KPS>60. Normal coagulation labs.
Key Exclusion Criteria: History of spontaneous or tumor related intracerebral hemorrhage. Uncontrolled coagulopathies or use of anti-coagulants.

[3] = system: recurrent high-grade gliomas; settings: patients with recurrent high-grade gliomas; cited from earlier work

Row | Compound | tumor size over time on serial MRI after treatment was withdrawn (C6 glioma cells) | median survival (C6 cells; Coenzyme Q10 50 mg/kg ip bid up to 35 days, 12 Gy RT on Day 8, monitored to Day 50, p<0.001) [days] | Long Term Survivors (%) (C6 cells; survived for 45 days) | DAPI levels (U251 glioma cells; 0, 230 or 460 μM) | superoxide values in GFP-low and GFP-high cells (U251 glioma cells; 0, 230 or 460 μM) | glioma cell levels by phase and fluorescent imaging (U251 glioma cells; 460 μM, U251/NHA co-culture) | superoxide level of U251 glioma cells compared to human astrocytes upon treatment (U251 glioma cells; basal difference 1.5-fold) | percentage of GFP-low relative to GFP-high cells (U251 glioma cells; with increasing dose, flow cytometry) | dosage of peak effect of differences in superoxide levels and cell growth ([1]; C6/NIH3T3 co-culture) | induction of mitochondrial superoxide versus non-neoplastic cells ([1]; C6 and U251 cells exposed to Coenzyme Q10) | superoxide values in GFP-negative (NHA) cells [2] | glucose uptake by FDG-PET in the area of prior surgery (high-grade glioma) | response rates [3]
1 | COC1=C(OC)C(=O)C(C/C=C(\C)CC/C=C(\C)CC/C=C(\C)CC/C=C(\C)CC/C=C(\C)CC/C=C(\C)CC/C=C(\C)CC/C=C(\C)CC/C=C(\C)CCC=C(C)C)=C(C)C1=O [Coenzyme Q10] | continued shrinkage of the tumor over time | 19 | 5/12 (42%) | only significantly elevated in GFP-low cells | increase in superoxide values | decreased glioma cell levels with a relative sparing of NHA cells | over 4 fold | increased percentage of GFP-low relative to GFP-high cells | 230 | significantly more induction of mitochondrial superoxide than non-neoplastic cells | insignificant changes | decreased glucose uptake | 
2 | Bevacizumab: a monoclonal antibody against vascular endothelial growth factor (VEGF) |  |  |  |  |  |  |  |  |  |  |  |  | 32-62%
